This note sets out measurements from patent publication US11014895B2, “Heterocyclic urea compound, and drug composition and application thereof” (CHINA PHARMACEUTICAL UNIVERSITY, priority 2017, dated 2021).

The target of assay [1] is IDO1 enzyme (Homo sapiens, UniProt P14902). Put plainly: Determination of biochemical activity of IDO1 enzyme (absorbance at 320 nm). The conditions noted are these: room temperature, 3 hours. The gist of the method:
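Absorbance at 320 nm was measured after a 3-hour room-temperature reaction of enzyme with compound. Phosphate buffer at pH 7-8 was used; inhibition was derived from the absorption ratio and fitted to IC50.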

The target of assay [2] is T1, IDO1 enzyme in the Hela cell (Homo sapiens, UniProt P14902).
T1 construct: endogenous in cells; host or cells: HeLa cells stimulated with interferon γ (100 ng/ml)
Put plainly: Cell activity: interferon γ-stimulated Hela cells, absorbance of supernatant at 480 nm. The settings on record: interferon γ 100 ng/ml, 72 hours. The assay is classed as cell-based. In short, it runs like this: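 Kynurenine-type readout: supernatant from IFN-γ-stimulated (100 ng/ml final) HeLa cells, 72 h with compound, was acid-hydrolysed with trichloroacetic acid (50 °C, 30 min). After centrifugation, 2% dimethylaminobenzaldehyde/acetic acid added and absorbance measured at 480 nm.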

Each structure is given as a SMILES string.

T1 sequence (P14902 whole entry): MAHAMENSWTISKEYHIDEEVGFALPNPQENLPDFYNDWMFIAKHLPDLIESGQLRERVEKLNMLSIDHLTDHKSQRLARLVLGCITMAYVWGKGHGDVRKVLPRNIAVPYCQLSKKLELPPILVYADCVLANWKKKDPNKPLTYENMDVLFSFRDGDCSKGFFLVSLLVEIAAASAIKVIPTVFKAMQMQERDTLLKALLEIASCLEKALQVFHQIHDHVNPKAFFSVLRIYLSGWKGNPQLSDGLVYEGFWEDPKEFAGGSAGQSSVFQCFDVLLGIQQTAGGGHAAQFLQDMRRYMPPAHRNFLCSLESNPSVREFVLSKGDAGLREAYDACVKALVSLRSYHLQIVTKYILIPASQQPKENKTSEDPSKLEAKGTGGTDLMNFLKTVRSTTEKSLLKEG
Chain of IDO1 enzyme (P14902 whole entry): as above

What is called IC50 is the concentration at which inhibition is half-maximal. A lower IC50 goes with higher potency. As for `O=C(Nc1nocc1/C(=N/O)Nc1ccc(F)c(Br)c1)Nc1c[nH]c2ccccc12` [Embodiment 95, (Z)-1-(4-(N-(3-bromo-4-fluorophenyl)-N′-hydroxyaminoiminomethyl)-isoxazole-3-substituted)-3-(3-aminoindole)urea], the IC50 in assay [1] and in assay [2] was 0.1 to 1 µM each time.
As to `O=C(Nc1ccoc1)Nc1nonc1/C(=N/O)Nc1ccc(F)c(Br)c1` [Embodiment 41, (Z)-1-(4-(N-(3-bromo-4-fluorophenyl)-N′-hydroxyaminoiminomethyl)-1,2,5-oxadiazole-3-substituted)-3-(furan-3-substituted)urea], the IC50 in assay [1] and in assay [2] was 0.1 to 1 µM throughout.
Regarding `COc1ccc(NC(=O)Nc2conc2/C(=N/O)Nc2ccc(F)c(Br)c2)cc1` [Embodiment 100, (Z)-1-(4-(N-(3-bromo-4-fluorophenyl)-N′-hydroxyaminoiminomethyl)-isoxazole-3-substituted)-4-(4-methoxyphenyl)urea], the IC50 in assay [1] and in assay [2] was 0.1 to 1 µM throughout.
With `COc1ccc(NC(=S)Nc2nocc2/C(=N/O)Nc2ccc(F)c(Br)c2)cc1` [Embodiment 133, (Z)-1-(4-(N-(3-bromo-4-fluorophenyl)-N′-hydroxyaminoiminomethyl)-isoxazole-3-substituted)-3-(4-methoxyphenyl)thiourea], the IC50 in assay [1] and in assay [2] was 0.1 to 1 µM each time.
Regarding `O=C(Nc1cccnc1)Nc1cocc1/C(=N/O)Nc1ccc(F)c(Br)c1` [Embodiment 75, (Z)-1-(4-(N-(3-bromo-4-fluorophenyl)-N′-hydroxyaminoiminomethyl)-furan-3-substituted)-3-(3-aminopyridine)urea], the IC50 in assay [1] and in assay [2] was 0.1 to 1 µM throughout.
Consider `O=C(NCCO)Nc1nonc1/C(=N/O)Nc1ccc(F)c(Cl)c1` [Embodiment 28, (Z)-1-(4-(N-(3-chloro-4-fluorophenyl)-N′-hydroxyaminoiminomethyl)-1,2,5-oxadiazole-3-substituted)-3-(23-hydroxyethane)urea], for which the IC50 in assay [1] and in assay [2] was below 0.001 µM each time.
As to `CC1CCC(NC(=O)Nc2nonc2/C(=N/O)Nc2ccc(F)c(Br)c2)CC1` (stereo not shown) [Embodiment 9, (Z)-1-(4-(N-(3-bromo-4-fluorophenyl)-N′-hydroxyaminoiminomethyl)-1,2,5-oxadiazole-3-substituted)-3-(4-methylcyclohexyl)urea], the IC50 in assay [1] and in assay [2] was above 1 µM each time.
For `O=C(Nc1nonc1/C(=N/O)Nc1ccc(F)c(Br)c1)NC1CCOC1` (stereo not shown) [Embodiment 47, (Z)-1-(4-(N-(3-bromo-4-fluorophenyl)-N′-hydroxyaminoiminomethyl)-1,2,5-oxadiazole-3-substituted)-3-(tetrahydrofuran-substituted)urea], the IC50 in assay [1] and in assay [2] was 0.1 to 1 µM each time.
Take `O/N=C(\Nc1ccc(F)c(Br)c1)c1nonc1NC(=S)NC1CCCCC1` [Embodiment 121, (Z)-1-(4-(N-(3-bromo-4-fluorophenyl)-N′-hydroxyaminoiminomethyl)-1,2,5-oxadiazole-3-substituted-)-3-(cyclohexyl)thiourea]: the IC50 in assay [1] and in assay [2] was 0.1 to 1 µM in each case.
With `O=C(Nc1cc[nH]c1)Nc1nonc1/C(=N/O)Nc1ccc(F)c(Br)c1` [Embodiment 40, (Z)-1-(4-(N-(3-bromo-4-fluorophenyl)-N′-hydroxyaminoiminomethyl)-1,2,5-oxadiazole-3-substituted)-3-(1H-pyrrole-3-substituted)urea], the IC50 in assay [1] and in assay [2] was 0.1 to 1 µM in each case.
As for `O=C(Nc1ncccn1)Nc1nonc1/C(=N/O)Nc1ccc(F)c(Br)c1` [Embodiment 43, (Z)-1-(4-(N-(3-bromo-4-fluorophenyl)-N′-hydroxyaminoiminomethyl)-1,2,5-oxadiazole-3-substituted)-3-(pyrimidine-2-substituted)urea], the IC50 in assay [1] and in assay [2] was above 1 µM throughout.
For `O=C(Nc1ccncn1)Nc1nonc1/C(=N/O)Nc1ccc(F)c(Br)c1` [Embodiment 45, (Z)-1-(4-(N-(3-bromo-4-fluorophenyl)-N′-hydroxyaminoiminomethyl)-1,2,5-oxadiazole-3-substituted)-3-(pyrimidine-4-substituted)urea], the IC50 in assay [1] and in assay [2] was above 1 µM throughout.
Regarding `COc1ccc(NC(=N)Nc2nocc2/C(=N/O)Nc2ccc(F)c(Br)c2)cc1` [Embodiment 157, (Z)-1-(4-(N-(3-bromo-4-fluorophenyl)-N′-hydroxyaminoiminomethyl)-isoxazole-3-substituted)-3-(4-methoxyphenyl)guanidine], the IC50 in assay [1] and in assay [2] was 0.1 to 1 µM throughout.
On to `COc1ccc(NC(=O)Nc2nonc2/C(=N/O)Nc2ccc(F)c(Br)c2)c(F)c1` [Embodiment 20, (Z)-1-(4-(N-(3-bromo-4-fluorophenyl)-N′-hydroxyaminoiminomethyl)-1,2,5-oxadiazole-3-substituted)-3-(4-methoxy-2-fluorophenyl)urea], for which the IC50 in assay [1] and in assay [2] was 0.1 to 1 µM in each case.
